SMILES strings stand for the structures. pKi: −log10 of the molar value.

We go through 25 compounds from article PMC8412899 (ACS Omega, 2021).

T1 sequence (Q07820 whole entry): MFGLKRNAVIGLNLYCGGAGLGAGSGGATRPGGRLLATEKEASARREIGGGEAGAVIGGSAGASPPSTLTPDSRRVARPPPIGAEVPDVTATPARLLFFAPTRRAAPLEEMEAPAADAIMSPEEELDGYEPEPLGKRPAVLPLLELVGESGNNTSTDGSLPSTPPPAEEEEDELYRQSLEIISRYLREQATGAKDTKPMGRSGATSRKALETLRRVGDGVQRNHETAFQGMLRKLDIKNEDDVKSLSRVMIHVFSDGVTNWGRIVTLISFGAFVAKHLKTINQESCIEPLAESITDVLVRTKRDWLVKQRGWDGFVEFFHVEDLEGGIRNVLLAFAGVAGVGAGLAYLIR

One assay addresses T1, MCL-1 (Homo sapiens, UniProt Q07820). The assay is described as follows: FP. The class given is binding.
Details: not given
As to `CCc1c(-c2cccc(Cl)c2C)c2c(N[C@H](Cc3ccccc3)C(=O)O)ncnc2n1CCC1CCCC1` (single isomer, unassigned) [Compound 9b, N-[(5Sa)-5-(3-Chloro-2-methylphenyl)-7-(2-cyclopentylethyl)-6-ethyl-7H-pyrrolo[2,3-d]pyrimidin-4-yl]-D-phenylalanine], the “FP MCL-1 Ki” value is recorded as “submicromolar”.

The assay is the same for the next values; noted with them: @50 μM, highest tested dose.
In the case of `CCc1c(-c2cccc(Cl)c2C)c2c(N[C@H](Cc3ccccc3)C(=O)O)ncnc2n1C(C)C` [Compound 6b, N-[(5Sa)-5-(3-Chloro-2-methylphenyl)-6-ethyl-7-(propan-2-yl)-7H-pyrrolo[2,3-d]pyrimidin-4-yl]-D-phenylalanine], the “FP MCL-1 inhibition at 50 μM” value amounted to 78%@50 μM.

Staying with this assay, now noted: FP MCL-1 Ki.
For the compound `C=CCn1c(CC)c(-c2cccc(Cl)c2C)c2c(N[C@H](Cc3ccccc3)C(=O)O)ncnc21` (single isomer, unassigned) [Compound 3a, N-[(5Ra)-5-(3-Chloro-2-methylphenyl)-6-ethyl-7-(prop-2-en-1-yl)-7H-pyrrolo[2,3-d]pyrimidin-4-yl]-D-phenylalanine], the pKi was 4.74. Still for that read-out and setting: with `C=CCn1c(CC)c(-c2cccc(Cl)c2C)c2c(N[C@H](Cc3ccccc3)C(=O)O)ncnc21` (single isomer, unassigned) [Compound 3b, N-[(5Sa)-5-(3-Chloro-2-methylphenyl)-6-ethyl-7-(prop-2-en-1-yl)-7H-pyrrolo[2,3-d]pyrimidin-4-yl]-D-phenylalanine] the figure was 5.04; with `C=CCn1c(Br)c(-c2cccc(Cl)c2C)c2c(N[C@H](Cc3ccccc3)C(=O)O)ncnc21` (single isomer, unassigned) [Compound 4a, N-[6-Bromo-(5Sa)-5-(3-chloro-2-methylphenyl)-7-(prop-2-en-1-yl)-7H-pyrrolo[2,3-d]pyrimidin-4-yl]-D-phenylalanine], 5.60. Same read-out and setting: with `CCc1c(-c2cccc(Cl)c2C)c2c(N[C@H](Cc3ccccc3)C(=O)O)ncnc2n1CC(F)(F)F` (single isomer, unassigned) [Compound 5b, N-[(5Sa)-5-(3-Chloro-2-methylphenyl)-6-ethyl-7-(2,2,2-trifluoroethyl)-7H-pyrrolo[2,3-d]pyrimidin-4-yl]-D-phenylalanine] the figure was 5.07.

`CC#CCn1c(CC)c(-c2cccc(Cl)c2C)c2c(N[C@H](Cc3ccccc3)C(=O)O)ncnc21` (single isomer, unassigned) [Compound 7a, N-[7-(But-2-yn-1-yl)-(5Ra)-5-(3-chloro-2-methylphenyl)-6-ethyl-7H-pyrrolo[2,3-d]pyrimidin-4-yl]-D-phenylalanine] had a pKi of 5.23. The same measure, in the same setting: next, `CC#CCn1c(CC)c(-c2cccc(Cl)c2C)c2c(N[C@H](Cc3ccccc3)C(=O)O)ncnc21` (single isomer, unassigned) [Compound 7b, N-[7-(But-2-yn-1-yl)-(5Sa)-5-(3-chloro-2-methylphenyl)-6-ethyl-7H-pyrrolo[2,3-d]pyrimidin-4-yl]-D-phenylalanine]: 6.48.

For the compound `CCc1c(-c2cccc(Cl)c2C)c2c(N[C@H](Cc3ccccc3)C(=O)O)ncnc2n1Cc1ccccc1` (single isomer, unassigned) [Compound 8a, N-[7-Benzyl-(5Ra)-5-(3-chloro-2-methylphenyl)-6-ethyl-7H-pyrrolo[2,3-d]pyrimidin-4-yl]-D-phenylalanine], the pKi was 5.19.

As for `CCc1c(-c2cccc(Cl)c2C)c2c(N[C@H](Cc3ccccc3)C(=O)O)ncnc2n1Cc1ccccc1` (single isomer, unassigned) [Compound 8b, N-[7-Benzyl-(5Sa)-5-(3-chloro-2-methylphenyl)-6-ethyl-7H-pyrrolo[2,3-d]pyrimidin-4-yl]-D-phenylalanine], the pKi was 6.28. Compound `CCc1c(-c2cccc(Cl)c2C)c2c(N[C@H](Cc3ccccc3)C(=O)O)ncnc2n1CCC1CCCC1` (single isomer, unassigned) [Compound 9a, N-[(5Ra)-5-(3-Chloro-2-methylphenyl)-7-(2-cyclopentylethyl)-6-ethyl-7H-pyrrolo[2,3-d]pyrimidin-4-yl]-D-phenylalanine] gave a pKi of 5.46. Same read-out and setting: next, `CCc1c(-c2cccc(Cl)c2C)c2c(N[C@H](Cc3ccccc3)C(=O)O)ncnc2n1CCC1CCCC1` (single isomer, unassigned) [Compound 9b, N-[(5Sa)-5-(3-Chloro-2-methylphenyl)-7-(2-cyclopentylethyl)-6-ethyl-7H-pyrrolo[2,3-d]pyrimidin-4-yl]-D-phenylalanine]: 6.10.

`CCc1c(-c2cccc(Cl)c2C)c2c(N[C@H](Cc3ccccc3)C(=O)O)ncnc2n1Cc1cccc2ccccc12` (single isomer, unassigned) [Compound 10a, N-[(5Ra)-5-(3-Chloro-2-methylphenyl)-6-ethyl-7-(naphthalen-1-ylmethyl)-7H-pyrrolo[2,3-d]pyrimidin-4-yl]-D-Phenylalanine] showed a negative-log Ki (pKi) of 5.46. In the case of `CCc1c(-c2cccc(Cl)c2C)c2c(N[C@H](Cc3ccccc3)C(=O)O)ncnc2n1Cc1cccc2ccccc12` (single isomer, unassigned) [Compound 10b, N-[(5Sa)-5-(3-Chloro-2-methylphenyl)-6-ethyl-7-(naphthalen-1-ylmethyl)-7H-pyrrolo[2,3-d]pyrimidin-4-yl]-D-phenylalanine], the pKi is 6.59. On the same count and under the same terms, next, `Cc1c(Cl)cccc1-c1c2n(c3ncnc(N[C@H](Cc4ccccc4)C(=O)O)c13)CCCC2` (single isomer, unassigned) [Compound 12a, N-[(5Ra)-5-(3-Chloro-2-methylphenyl)-6,7,8,9-tetrahydropyrimido[5,4-b]indolizin-4-yl]-D-phenylalanine]: 4.96. On to `Cc1c(Cl)cccc1-c1c2n(c3ncnc(N[C@H](Cc4ccccc4)C(=O)O)c13)CCCC2` (single isomer, unassigned) [Compound 12b, N-[(5Sa)-5-(3-Chloro-2-methylphenyl)-6,7,8,9-tetrahydropyrimido[5,4-b]indolizin-4-yl]-D-phenylalanine], for which the pKi is 5.23. The same measure, in the same setting: next, `COc1ccccc1C[C@@H](Oc1ncnc2sc(-c3ccc(F)cc3)c(-c3ccc(OCCN4CCN(C)CC4)c(Cl)c3C)c12)C(=O)O` [Compound 13, (2R)-2-{[(5Sa)-5-{3-Chloro-2-methyl-4-[2-(4-methylpiperazin-1-yl)ethoxy]phenyl}-6-(4-fluorophenyl)thieno[2,3-d]pyrimidin-4-yl]oxy}-3-(2-methoxyphenyl)propanoic Acid]: 7.85. Same read-out and setting: next, `COc1ccccc1C[C@@H](Oc1cccc2oc(-c3ccc(F)cc3)c(-c3ccc(OCCN4CCN(C)CC4)c(Cl)c3C)c12)C(=O)O` [Compound 14, (2R)-2-{[(3Sa)-3-{3-Chloro-2-methyl-4-[2-(4-methylpiperazin-1-yl)ethoxy]phenyl}-2-(4-fluorophenyl)-1-benzofuran-4-yl]oxy}-3-(2-methoxyphenyl)propanoic Acid]: 6.09; `COc1ccccc1C[C@@H](Oc1cccc2cc(-c3ccc(F)cc3)n(-c3ccc(OCCN4CCN(C)CC4)c(Cl)c3C)c12)C(=O)O` [Compound 15, (2R)-2-{[(1Ra)-1-{3-Chloro-2-methyl-4-[2-(4-methylpiperazin-1-yl)ethoxy]phenyl}-2-(4-fluorophenyl)-1H-indol-7-yl]oxy}-3-(2-methoxyphenyl)propanoic Acid]: 7.33.

The assay is the same for the next values; noted with them: less active form compared to more active isomer 3b.
For `C=CCn1c(CC)c(-c2cccc(Cl)c2C)c2c(N[C@H](Cc3ccccc3)C(=O)O)ncnc21` (single isomer, unassigned) [Compound 3a, N-[(5Ra)-5-(3-Chloro-2-methylphenyl)-6-ethyl-7-(prop-2-en-1-yl)-7H-pyrrolo[2,3-d]pyrimidin-4-yl]-D-phenylalanine], the “fold less potent (FP affinity)” value amounted to 2 fold.

The assay is the same for the next values; noted with them: read-out: FP MCL-1 inhibition at 50 μM, @50 μM, highest tested dose.
Regarding `CCc1c(-c2cccc(Cl)c2C)c2c(N[C@H](Cc3ccccc3)C(=O)O)ncnc2n1C` (single isomer, unassigned) [Compound 2a, N-[(5Ra)-5-(3-Chloro-2-methylphenyl)-6-ethyl-7-methyl-7H-pyrrolo[2,3-d]pyrimidin-4-yl]-D-phenylalanine], the inhibition at 50 µM amounted to 65%. In the case of `C=CCn1c(Br)c(-c2cccc(Cl)c2C)c2c(N[C@H](Cc3ccccc3)C(=O)O)ncnc21` (single isomer, unassigned) [Compound 4b, N-[6-Bromo-(5Ra)-5-(3-chloro-2-methylphenyl)-7-(prop-2-en-1-yl)-7H-pyrrolo[2,3-d]pyrimidin-4-yl]-D-phenylalanine], the inhibition at 50 µM was determined as 66%. On to `CCc1c(-c2cccc(Cl)c2C)c2c(N[C@H](Cc3ccccc3)C(=O)O)ncnc2n1CC(F)(F)F` (single isomer, unassigned) [Compound 5a, N-[(5Ra)-5-(3-Chloro-2-methylphenyl)-6-ethyl-7-(2,2,2-trifluoroethyl)-7H-pyrrolo[2,3-d]pyrimidin-4-yl]-D-phenylalanine], for which the inhibition at 50 µM was found to be 63%. As for `CCc1c(-c2cccc(Cl)c2C)c2c(N[C@H](Cc3ccccc3)C(=O)O)ncnc2n1C(C)C` [Compound 6a, N-[(5Ra)-5-(3-Chloro-2-methylphenyl)-6-ethyl-7-(propan-2-yl)-7H-pyrrolo[2,3-d]pyrimidin-4-yl]-D-phenylalanine], the inhibition at 50 µM was found to be 67%.

A further assay deals with T1, MCL-1. The assay can be described thus: QA. The settings on record: QA MCL-1 Ki. It counts as binding.
The compound `COc1ccccc1-c1nccc(COc2ccccc2C[C@@H](Nc2ncnc3sc(-c4ccc(F)cc4)c(-c4ccc(OCCN5CCN(C)CC5)c(Cl)c4C)c23)C(=O)O)n1` [Compound 16b, N-[(5Sa)-5-{3-Chloro-2-methyl-4-[2-(4-methylpiperazin-1-yl)ethoxy]phenyl}-6-(4-fluorophenyl)thieno[2,3-d]pyrimidin-4-yl]-2-{[2-(2-methoxyphenyl)pyrimidin-4-yl]methoxy}-D-phenylalanine] gave a negative-log Ki (pKi) of 9.52. Regarding `COc1ccccc1-c1nccc(COc2ccccc2C[C@@H](Nc2ccnc3sc(-c4ccc(F)cc4)c(-c4ccc(OCCN5CCN(C)CC5)c(Cl)c4C)c23)C(=O)O)n1` [Compound 18, N-[3-{3-Chloro-2-methyl-4-[2-(4-methylpiperazin-1-yl)ethoxy]phenyl}-2-(4-fluorophenyl)thieno[2,3-b]pyridin-4-yl]-2-{[2-(2-methoxyphenyl)pyrimidin-4-yl]methoxy}-D-phenylalanine], the negative-log Ki (pKi) is 10.00.

For the compound `COc1ccccc1-c1nccc(COc2ccccc2C[C@@H](Oc2cccc3oc(-c4ccc(F)cc4)c(-c4ccc(OCCN5CCN(C)CC5)c(Cl)c4C)c23)C(=O)O)n1` [Compound 21, (2R)-2-{[(3Sa)-3-{3-Chloro-2-methyl-4-[2-(4-methylpiperazin-1-yl)ethoxy]phenyl}-2-(4-fluorophenyl)-1-benzofuran-4-yl]oxy}-3-(2-{[2-(2-methoxyphenyl)pyrimidin-4-yl]methoxy}phenyl)propanoic Acid], the pKi was 8.89.

Another assay relates to NCI-H929 cells. The assay can be described thus: MTT cell viability assay of NCI H929 cell line. It counts as cell-based. The following applies: compared to 13.
For the compound `COc1ccccc1C[C@@H](Oc1cccc2oc(-c3ccc(F)cc3)c(-c3ccc(OCCN4CCN(C)CC4)c(Cl)c3C)c12)C(=O)O` [Compound 14, (2R)-2-{[(3Sa)-3-{3-Chloro-2-methyl-4-[2-(4-methylpiperazin-1-yl)ethoxy]phenyl}-2-(4-fluorophenyl)-1-benzofuran-4-yl]oxy}-3-(2-methoxyphenyl)propanoic Acid], the “loss of cellular activity” value is on record as “more than 10 fold”.

Take `COc1ccccc1C[C@@H](Oc1cccc2cc(-c3ccc(F)cc3)n(-c3ccc(OCCN4CCN(C)CC4)c(Cl)c3C)c12)C(=O)O` [Compound 15, (2R)-2-{[(1Ra)-1-{3-Chloro-2-methyl-4-[2-(4-methylpiperazin-1-yl)ethoxy]phenyl}-2-(4-fluorophenyl)-1H-indol-7-yl]oxy}-3-(2-methoxyphenyl)propanoic Acid]: the “loss of cellular activity” value is given as “more than 10 fold”.

For orientation: pKi means −log10 of the Ki, conventionally taken in molar units. A word on the inhibition: it is the percentage by which the read-out fell short of the control.
